Results published in article PMC10619430, “Xenobiotic Exposure and Migraine-Associated Signaling: A Multimethod Experimental Study Exploring Cellular Assays in Combination with Ex Vivo and In Vivo Mouse Models” (Environmental Health Perspectives, 2023).
pEC50: −log10 of the molar value.

Columns and labels:
Type in all cases: cell-based
[1] = target: T1, human TRPA1 channel (hTRPA1) (Homo sapiens, UniProt O75762); test: whole-cell patch clamp in hTRPA1-HEK cells vs control cells; calcium imaging
T1 sequence (O75762 whole entry): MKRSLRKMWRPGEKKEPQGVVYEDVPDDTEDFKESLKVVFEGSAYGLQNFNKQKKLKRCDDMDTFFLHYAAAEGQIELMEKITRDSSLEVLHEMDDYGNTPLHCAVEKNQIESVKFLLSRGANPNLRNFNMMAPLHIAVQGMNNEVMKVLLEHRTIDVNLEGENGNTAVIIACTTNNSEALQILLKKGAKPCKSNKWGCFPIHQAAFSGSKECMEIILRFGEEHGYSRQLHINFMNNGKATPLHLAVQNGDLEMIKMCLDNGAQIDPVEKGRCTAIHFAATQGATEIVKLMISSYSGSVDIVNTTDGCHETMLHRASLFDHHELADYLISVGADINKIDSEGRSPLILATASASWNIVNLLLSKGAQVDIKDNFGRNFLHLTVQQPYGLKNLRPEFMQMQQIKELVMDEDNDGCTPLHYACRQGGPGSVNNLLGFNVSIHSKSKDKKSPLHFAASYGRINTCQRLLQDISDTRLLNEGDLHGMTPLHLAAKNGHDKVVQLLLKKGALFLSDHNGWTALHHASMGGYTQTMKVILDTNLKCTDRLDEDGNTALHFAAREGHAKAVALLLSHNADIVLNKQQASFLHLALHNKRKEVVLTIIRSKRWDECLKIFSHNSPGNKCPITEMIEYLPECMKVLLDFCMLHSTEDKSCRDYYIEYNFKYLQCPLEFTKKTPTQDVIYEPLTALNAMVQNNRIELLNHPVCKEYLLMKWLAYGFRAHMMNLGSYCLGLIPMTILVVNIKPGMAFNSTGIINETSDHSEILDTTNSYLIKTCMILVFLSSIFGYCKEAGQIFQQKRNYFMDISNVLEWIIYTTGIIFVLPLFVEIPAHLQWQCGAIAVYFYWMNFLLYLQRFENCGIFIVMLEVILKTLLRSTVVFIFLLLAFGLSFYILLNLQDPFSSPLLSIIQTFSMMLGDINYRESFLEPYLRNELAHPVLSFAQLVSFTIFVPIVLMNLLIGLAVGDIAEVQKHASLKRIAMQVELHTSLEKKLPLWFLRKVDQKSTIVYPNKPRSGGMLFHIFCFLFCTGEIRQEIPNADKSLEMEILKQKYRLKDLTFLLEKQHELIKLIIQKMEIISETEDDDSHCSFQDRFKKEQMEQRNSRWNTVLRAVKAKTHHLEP

[2] = target: T1, human TRPA1 channel (hTRPA1); test: fluo-4 calcium imaging in hTRPA1-HEK vs control cells at […]; conditions: read-out: % of ionomycin response at 100 μM
[3] = target: T1, human TRPA1 channel (hTRPA1); test: fluo-4 calcium imaging in hTRPA1-HEK vs control cells at […] ([…] of ionomycin, […] of SCA response)

Compound	activation at 100 µM [2]	further results
Oc1c(Cl)c(Cl)c(Cl)c(Cl)c1Cl [PCP, 2,3,4,5,6-pentachlorophenol]	–	pEC50 [1]: 4.82
CC(C)(c1ccc(O)cc1)c1ccc(O)cc1 [BPA, 4-[2-(4-hydroxyphenyl)propan-2-yl]phenol]	11%	–
O=C(OCc1ccccc1)c1ccc(O)cc1 [BzPa, Benzyl 4-hydroxybenzoate]	34.2%	–
Oc1c(Cl)cc(Cl)c(Cl)c1Cc1c(O)c(Cl)cc(Cl)c1Cl [HCP, 3,4,6-trichloro-2-[(2,3,5-trichloro-6-hydroxyphenyl)methyl]phenol]	–	activation at 10 µM [3]: 47%
